Source: PubChem BioAssay (NCI)
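Assay format: 96-well plates, 48-hour exposure. At the TGI there is no net growth.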

Legend:
Experiment in all cases: NCI tumour cell line growth inhibition, 48 h
786-0 renal = test system: 786-0 renal
A549 NSCLC = test system: A549 NSCLC
ACHN renal = test system: ACHN renal
BT-549 breast = test system: BT-549 breast
CAKI-1 renal = test system: CAKI-1 renal
CCRF-CEM leukemia = test system: CCRF-CEM leukemia
COLO 205 colon = test system: COLO 205 colon
DU-145 prostate = test system: DU-145 prostate
EKVX NSCLC = test system: EKVX NSCLC
HCC-2998 colon = test system: HCC-2998 colon
HCT-116 colon = test system: HCT-116 colon
HCT-15 colon = test system: HCT-15 colon
HL-60(TB) leukemia = test system: HL-60(TB) leukemia
HOP-62 NSCLC = test system: HOP-62 NSCLC
HOP-92 NSCLC = test system: HOP-92 NSCLC
HS 578T breast = test system: HS 578T breast
HT29 colon = test system: HT29 colon
IGROV1 ovarian = test system: IGROV1 ovarian
KM12 colon = test system: KM12 colon
LOX IMVI melanoma = test system: LOX IMVI melanoma
M14 melanoma = test system: M14 melanoma
MALME-3M melanoma = test system: MALME-3M melanoma
MCF7 breast = test system: MCF7 breast
MDA-MB-231 breast = test system: MDA-MB-231 breast
MDA-MB-435 = test system: MDA-MB-435
MDA-N = test system: MDA-N
MOLT-4 leukemia = test system: MOLT-4 leukemia
NCI-H226 lung = test system: NCI-H226 lung
NCI-H23 lung = test system: NCI-H23 lung
NCI-H522 lung = test system: NCI-H522 lung
NCI/ADR-RES ovarian = test system: NCI/ADR-RES ovarian
OVCAR-3 ovarian = test system: OVCAR-3 ovarian
OVCAR-4 ovarian = test system: OVCAR-4 ovarian
OVCAR-5 ovarian = test system: OVCAR-5 ovarian
OVCAR-8 ovarian = test system: OVCAR-8 ovarian
PC-3 prostate = test system: PC-3 prostate
RPMI-8226 leukemia = test system: RPMI-8226 leukemia
RXF 393 renal = test system: RXF 393 renal
SF-268 CNS = test system: SF-268 CNS
SF-295 CNS = test system: SF-295 CNS
SF-539 CNS = test system: SF-539 CNS
SK-MEL-2 melanoma = test system: SK-MEL-2 melanoma
SK-MEL-28 melanoma = test system: SK-MEL-28 melanoma
SK-MEL-5 melanoma = test system: SK-MEL-5 melanoma
SK-OV-3 ovarian = test system: SK-OV-3 ovarian
SN12C renal = test system: SN12C renal
SNB-19 CNS = test system: SNB-19 CNS
SNB-75 CNS = test system: SNB-75 CNS
SR leukemia = test system: SR leukemia
SW-620 colon = test system: SW-620 colon
T-47D breast = test system: T-47D breast
TK-10 renal = test system: TK-10 renal
U251 CNS = test system: U251 CNS
UACC-257 melanoma = test system: UACC-257 melanoma
UACC-62 melanoma = test system: UACC-62 melanoma
UO-31 renal = test system: UO-31 renal

Measured: TGI

O=C1NC(N2CCOCC2)=N/C1=C\c1cccs1
> 100 µM: all assays above
